Laboratory results: patent US20220249463A1, “METHODS OF ALTERING CARDIAC REMODELING USING COMPOUNDS THAT PROMOTE GLUCOSE OXIDATION” (IMBRIA PHARMACEUTICALS, INC., priority 2019, published 2022)

Legend:
TAC mice = test: TAC mice: echocardiography; assay type: in vivo
[1] = Stability of CV-8972 forms in solvents, X-ray powder diffraction; assay type: physicochemical
Method: Samples from batch 289-MBA-15-A (containing form B) were added to various solvents, incubated under various conditions, and analyzed by X-ray powder diffraction.
Samples from batch 289-MBA-16 (containing forms A and B) were added to various solvents, incubated under various conditions, and analyzed by X-ray powder diffraction.
Samples from batch S-18-0030513 (containing form A) were added to various solvents, incubated under various conditions, and analyzed by X-ray powder diffraction.

## COc1ccc(CN2CCN(CCOC(=O)c3cccnc3)CC2)c(OC)c1OC [CV-8972, 2-(4-(2,3,4-trimethoxybenzyl)piperazin-1-yl)ethyl nicotinate]
TAC mice; 3-weeks after TAC
  EF (in words): significantly increased
  IVRT: 32 ± 1 ms
  IVSd: 1.29±0.04 mm
  LV mass: 154 ± 8 mg
TAC mice; 3-weeks after TAC, CV-8814 7.5, CV-8972 10 mg/kg/day
  left ventricular FS: 47%±3%
TAC mice; 6-weeks after TAC
  IVRT: 31 ± 2 ms
  IVSd: 1.26±0.04 mm
  LV mass: 156 ± 10 mg
TAC mice; 6-weeks after TAC (end of the experiment)
  left ventricular FS: 46%±3%
TAC mice; conclusion, 6 weeks treatment
  cardiac functions in TAC mice (in words): improved cardiac functions
TAC mice; to the end of the study (6 weeks)
  EF (in words): protective effect was sustained to the end of the study
[1]; batch 289-MBA-15-A (containing form B), ACN/H2O (90:10) Aw = 0.83, Slurry, RT, 5 d
  XRPD results: Form A
[1]; batch 289-MBA-15-A (containing form B), Acetone/H2O (90:10) Aw = 0.72, Slurry, RT, 5 d
  XRPD results: Form A
[1]; batch 289-MBA-15-A (containing form B), EtOAc/H2O (97:3) Aw = 0.94, Slurry, RT, 5 d
  XRPD results: Form A
[1]; batch 289-MBA-15-A (containing form B), EtOAc, Slurry, RT, 5 d
  XRPD results: Form A + Form B
[1]; batch 289-MBA-15-A (containing form B), EtOH/H2O (90:10) Aw = 0.52, Slurry, RT, 5 d
  XRPD results: Form A
[1]; batch 289-MBA-15-A (containing form B), EtOH, CC from 60° C.
  XRPD results: Form C + minor Form A
[1]; batch 289-MBA-15-A (containing form B), EtOH, Slurry, RT, 3 d
  XRPD results: Form A + Form B
[1]; batch 289-MBA-15-A (containing form B), IPA/H2O (90:10) Aw = 0.67, Slurry, RT, 5 d
  XRPD results: Form A
[1]; batch 289-MBA-15-A (containing form B), IPA/H2O (98:2) Aw = 0.26, Slurry, RT, 5 d
  XRPD results: Form A
[1]; batch 289-MBA-15-A (containing form B), MEK, Slurry, RT, 5 d
  XRPD results: Form A
[1]; batch 289-MBA-15-A (containing form B), MeOH/H2O (80:20) Aw = 0.48, Slurry, RT, 5 d
  XRPD results: Form A
[1]; batch 289-MBA-15-A (containing form B), MeOH/H2O (95:5) Aw = 0.16, Slurry, RT, 5 d
  XRPD results: Form A
[1]; batch 289-MBA-15-A (containing form B), MeOH, Slurry, RT, 5 d
  XRPD results: Form A + Form B
[1]; batch 289-MBA-15-A (containing form B), no solvent, 100° C., 20 minutes, result wraps over r24-r26: Form B, shifted with minor Form A
  XRPD results: Form B,
[1]; batch 289-MBA-16 (containing forms A and B), EtOAc, Attempted to dissolve at ~60° C., solids remained, cooled slowly to RT, let stir at RT from 60° C. (Table 60)
  XRPD results: Form A + Form B
[1]; batch 289-MBA-16 (containing forms A and B), EtOAc, SC from 60° C. (Table 63)
  XRPD results: Form A + Form B
[1]; batch 289-MBA-16 (containing forms A and B), EtOH, SC from 60° C.
  XRPD results: Form A + Form C
[1]; batch 289-MBA-16 (containing forms A and B), EtOH, Slurry, RT, 3 d (Table 60)
  XRPD results: Form A + Form B
[1]; batch 289-MBA-16 (containing forms A and B), EtOH, Slurry, RT, 3 d (Table 63)
  XRPD results: Form A + Form B
[1]; batch 289-MBA-16 (containing forms A and B), MeOH/H2O (95:5), Slurry, overnight, 1 g scale
  XRPD results: Form A
[1]; batch 289-MBA-16 (containing forms A and B), MeOH, VD w/ MTBE (Table 63)
  XRPD results: Form A
[1]; batch 289-MBA-16 (containing forms A and B), MeOH, Vapor diffusion w/ MTBE (Table 60)
  XRPD results: Form A
[1]; batch 289-MBA-16 (containing forms A and B), THF, SC from 60° C.
  XRPD results: Form B
[1]; batch S-18-0030513 (containing form A), CHCl3, Slurry, RT
  XRPD results: Form A
[1]; batch S-18-0030513 (containing form A), EtOAc, Slurry, RT
  XRPD results: Form A
[1]; batch S-18-0030513 (containing form A), EtOH, Crash cool from 70° C.
  XRPD results: Form A + Form C
[1]; batch S-18-0030513 (containing form A), MEK/H2O 99:1, Slow cool from 70° C.
  XRPD results: Form A
[1]; batch S-18-0030513 (containing form A), THF, Slurry, RT
  XRPD results: Form A
[1]; batch S-18-0030513 (containing form A), no solvent, 80° C., 20 minutes
  XRPD results: Form A with slight peak shifting
[1]; batch S-18-0030513 (containing form A), no solvent, 97% RH Stress of Form A dried at 80° C. for 20 min
  XRPD results: Form A
[1]; batch S-18-0030513 (containing form A), no solvent, 100° C., 20 minutes
  XRPD results: Form B + Form A, shifted
[1]; batch S-18-0030513 (containing form A), no solvent, VO, RT
  XRPD results: Form A
